Experimental data taken from patent US10555965B2, “Environment-responsive hyaluronic acid nanoparticles” (Industry-University Cooperation Foundation Hanyang …, priority 2015, dated 2020).

What was measured:
HepG2 cells = experiment: Apoptosis/necrosis by flow cytometry (Annexin-V-FITC/PI); format: cell-based; details: 12 hours treatment, nanoparticles 1 mg/mL or 2DG 0.25 mg/mL
Description: The 2-deoxy-D-glucose was used as a glycolytic inhibitor. The ATP content was measured using an ATP Colorimetric/Fluorometric Assay Kit (Biovision). Lactate secretion was quantified using an EnzyChromTM L-Lactate Assay Kit (Bioassay). In cell fate, an effect of the HA-PBA nanoparticles on the inhibition of glycolysis was examined using a flow cytometer (BD FACS Caliber). Briefly, the HepG2 cells were treated with the HA-PBA nanoparticles or 2DG for 12 hours. An Annexin-V-FITC antibody and propidium iodide (PI) were used as markers for apoptotic and necrotic cell death. The HepG2 cells were seeded in a 24-well tissue culture plate at a density of 1×10^4 cells/well, and incubated at 37° C. for 24 hours under 5% CO2 conditions. The cells were washed with PBS, and treated for 8 hours with a low or high glucose medium including the HA-PBA nanoparticles (1 mg/mL) having a degree of […]. Also, prior to treatment with the HA-PBA nanoparticles, the cells were pretreated with a hyaluronate (2.5 mg/mL) dissolved in a low glucose medium. The medium was replaced with a fresh medium daily. At a predetermined point of time, the cells were treated with EZ-Cytox for 2 hours, and the optical density at 450 nm was measured using a UV/VIS spectrophotometer. The growth rate of the cells was calculated from a change in the number of the cells in 3 days of incubation. […]

HepG2 tumor = experiment: In vivo therapeutic effect (liver cancer growth inhibition); set-up: species or system mice; details: intravenous, 5 times for a week, monitored 17 days
Description: To evaluate a therapeutic effect of the HA-PBA nanoparticles, the tumor-bearing mouse model of Experimental Example 7 was prepared.
The HA-PBA nanoparticles (20 mg kg), paclitaxel (10 mg/kg), and PBS were intravenously injected into the caudal veins of the tumor-bearing mice (injected 5 times for a week). Changes in tumor volume were monitored for 2 weeks (n=7). Tumor tissues were extracted from the mice, and embedded into an optimal cutting temperature (OCT) compound. The tumor tissues were cut into sections (12 μm thick), and stained with hematoxylin and eosin (H&E) and a DeadEnd™ colorimetric TUNEL system (Promega, USA).
When the tumor volumes of the mice reached approximately 90 mm3, the HA-PBA nanoparticles, paclitaxel, and PBS were injected into the mice.

Row | Structure (SMILES) | in-late apoptotic HepG2 cells (HepG2 cells; control 5.77%) [%] | apoptotic HepG2 cells (HepG2 cells; control 6.76%) [%] | weight loss (HepG2 tumor) | tumor growth rate compared to PBS-treated group (HepG2 tumor; nanoparticles 20 mg kg, paclitaxel 10 mg/kg)
1 | O=CC[C@@H](O)[C@H](O)[C@H](O)CO [2DG, 2-deoxy-D-glucose] | 4.65 | 18.81 | – | –
2 | CC(=O)O[C@H]1C(=O)[C@@]2(C)[C@H]([C@H](OC(=O)c3ccccc3)[C@]3(O)C[C@H](OC(=O)[C@H](O)[C@@H](NC(=O)c4ccccc4)c4ccccc4)C(C)=C1C3(C)C)[C@]1(OC(C)=O)CO[C@@H]1C[C@@H]2O [paclitaxel] | – | – | No weight loss | inhibited tumor growth rate
